# Experimental data reported in BindingDB's records for PubMed 9694962 (Memorial Sloan-Kettering Cancer Center, 1998).
# Values joined by “and” are separate entries in the source; they are usually repeats but may differ in a detail not shown here. Identical values can stand only once. Where a SMILES comes first, the peptide text is derived from it.
# Target: Mu-type opioid receptor (Bos taurus, UniProt P79350)
# Sequence (P79350 whole entry): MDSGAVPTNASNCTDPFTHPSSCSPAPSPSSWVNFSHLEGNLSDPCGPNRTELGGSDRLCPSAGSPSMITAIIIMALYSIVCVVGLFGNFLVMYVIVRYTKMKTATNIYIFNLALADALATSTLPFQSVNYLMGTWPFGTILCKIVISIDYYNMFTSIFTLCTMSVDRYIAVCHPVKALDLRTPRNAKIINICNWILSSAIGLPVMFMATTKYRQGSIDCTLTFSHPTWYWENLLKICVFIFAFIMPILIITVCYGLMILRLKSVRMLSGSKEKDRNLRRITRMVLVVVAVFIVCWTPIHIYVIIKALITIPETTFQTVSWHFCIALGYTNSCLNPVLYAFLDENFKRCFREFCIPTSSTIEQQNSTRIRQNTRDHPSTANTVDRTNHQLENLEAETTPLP
row,Structure (SMILES),Ki
1,NC(=O)[C@H](Cc1ccccc1)NC(=O)[C@H](Cc1ccccc1)NC(=O)[C@@H]1CCCN1C(=O)[C@@H](N)Cc1ccc(O)cc1,0.43 nM and 4 nM
2,NC(=O)[C@H](Cc1ccccc1)NC(=O)[C@H](Cc1c[nH]c2ccccc12)NC(=O)[C@@H]1CCCN1C(=O)[C@@H](N)Cc1ccc(O)cc1 [Endomorphin 1],0.67 nM and 3.2 nM

# Target: Mu-type opioid receptor (Mus musculus, UniProt P42866)
# Sequence (P42866 whole entry): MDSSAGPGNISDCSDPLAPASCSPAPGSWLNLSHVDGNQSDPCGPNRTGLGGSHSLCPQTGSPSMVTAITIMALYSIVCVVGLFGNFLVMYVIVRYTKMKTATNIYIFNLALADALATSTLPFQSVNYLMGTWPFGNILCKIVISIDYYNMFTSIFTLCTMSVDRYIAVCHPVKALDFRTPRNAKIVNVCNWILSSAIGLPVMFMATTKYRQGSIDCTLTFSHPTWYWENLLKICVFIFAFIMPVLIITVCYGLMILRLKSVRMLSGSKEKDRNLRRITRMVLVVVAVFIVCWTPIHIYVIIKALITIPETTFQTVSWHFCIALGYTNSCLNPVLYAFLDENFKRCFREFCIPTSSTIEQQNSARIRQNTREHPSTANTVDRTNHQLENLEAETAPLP
row,Structure (SMILES),Ki
1,C=CCN1CCC23c4c5ccc(O)c4O[C@@H]2C(=NNC(=O)c2ccccc2)CCC3(O)C1C5 (some centres not stated),0.2 nM and 0.12 nM
2,COc1ccc2c3c1O[C@H]1C(=O)CC[C@@]4(O)[C@@H](C2)N(CC2CC2)CC[C@]314,20.3 nM and 21.2 nM
3,CC(C)C[C@H](NC(=O)[C@H](Cc1ccccc1)NC(=O)CNC(=O)CNC(=O)[C@@H](N)Cc1ccc(O)cc1)C(=O)N[C@@H](CCCN=C(N)N)C(=O)N[C@@H](CCCN=C(N)N)C(=O)N[C@@H](CCC(N)=O)C(=O)N[C@@H](Cc1ccccc1)C(=O)N[C@@H](CCCCN)C(=O)N[C@H](C(=O)N[C@H](C(=O)N[C@H](C(=O)O)[C@@H](C)O)C(C)C)C(C)C [(Dynorphin)2-[2-(2-{2-[2-(2-{2-[2-Amino-3-(4-hydroxy-phenyl)-propionylamino]-acetylamino}-acetylamino)-3-phenyl-propionylamino]-4-methyl-pentanoylamino}-5-guanidino-pentanoylamino)-5-guanidino-pentanoylamino]-3-methyl-pentanoic acid],39.8 nM and 11.4 nM
4,CC[C@H](C)[C@H](NC(=O)[C@H](C)NC(=O)[C@H](CC(N)=O)NC(=O)[C@H](CCCCN)NC(=O)[C@H](Cc1ccccc1)NC(=O)[C@H](CC(C)C)NC(=O)[C@@H](NC(=O)[C@@H](NC(=O)[C@H](CC(C)C)NC(=O)[C@@H]1CCCN1C(=O)[C@@H](NC(=O)[C@H](CCC(N)=O)NC(=O)[C@H](CO)NC(=O)[C@H](CCCCN)NC(=O)[C@H](CCC(=O)O)NC(=O)[C@H](CO)NC(=O)[C@@H](NC(=O)[C@H](CCSC)NC(=O)[C@H](Cc1ccccc1)NC(=O)CNC(=O)CNC(=O)[C@@H](N)Cc1ccc(O)cc1)[C@@H](C)O)[C@@H](C)O)C(C)C)[C@@H](C)O)C(=O)N[C@H](C(=O)N[C@@H](CCCCN)C(=O)N[C@@H](CC(N)=O)C(=O)N[C@@H](C)C(=O)N[C@@H](Cc1cnc[nH]1)C(=O)N[C@@H](CCCCN)C(=O)N[C@@H](CCCCN)C(=O)NCC(=O)N[C@@H](CCC(N)=O)C(=O)O)C(C)C [Beta-Endorphin] (H-YGGFMTSEKSQTPLVTLFKNAIVKNAHKKGQ-OH),10.9 nM and 3.22 nM
5,NC(=O)CNC(=O)[C@H](Cc1c[nH]c2ccccc12)NC(=O)[C@@H]1CCCN1C(=O)[C@@H](N)Cc1ccc(O)cc1 [CAS_132632] (H-YPWG-NH2),18 nM and 44.7 nM
6,CC(C)C[C@H](NC(=O)[C@H](Cc1ccccc1)NC(=O)CNC(=O)[C@@H](CO)NC(=O)[C@@H](N)Cc1ccc(O)cc1)C(=O)N[C@H](C(=O)O)[C@@H](C)O [DSLET-OH],20 nM and 10.8 nM
7,CC[C@H](C)[C@H](NC(=O)[C@H](CCCNC(=N)N)NC(=O)[C@H](CCCNC(=N)N)NC(=O)[C@H](CC(C)C)NC(=O)[C@H](Cc1ccccc1)NC(=O)CNC(=O)CNC(=O)[C@@H](N)Cc1ccc(O)cc1)C(=O)N[C@@H](CCCNC(=N)N)C(=O)N1CCC[C@H]1C(=O)N[C@@H](CCCCN)C(=O)N[C@@H](CC(C)C)C(=O)N[C@@H](CCCCN)C(=O)N[C@@H](Cc1c[nH]c2ccccc12)C(=O)N[C@@H](CC(=O)O)C(=O)N[C@@H](CC(N)=O)C(=O)N[C@@H](CCC(N)=O)C(=O)O [Dynorphin A (1-17)],12.8 nM and 3.32 nM
8,C=CCN1CC[C@]23CCCCC2[C@H]1Cc1ccc(O)cc13 (some centres not stated) [Levallorphan],0.97 nM and 0.96 nM
9,CN1CCC23c4c5ccc(O)c4O[C@H]2[C@@H](OC2OC(C(=O)O)C(O)C(O)C2O)C=C[C@H]3[C@H]1C5 (some centres not stated) [Morphine 6-glucuronide],2.35 nM and 2.47 nM
10,"CSCC[C@H](NC(=O)[C@H](Cc1ccccc1)NC(=O)CNC(=O)CNC(=O)[C@@H](N)Cc1ccc(O)cc1)C(=O)N[C@@H](CCCNC(=N)N)C(=O)N[C@@H](Cc1ccccc1)C(=O)O [enkephalin-Met, Arg(6)-Phe(7)] (H-YGGFMRF-OH)",30 nM and 13.4 nM
